Test results: ChEMBL document CHEMBL4354805, “Discovery of MK-8719, a Potent O-GlcNAcase Inhibitor as a Potential Treatment for Tauopathies” (J Med Chem, 2019)
Blank lines part the entries; values can stand above or below the molecule they belong to.

Key:
[1] = Half life in Wistar Han rat at 2 mg/kg, iv; format: ADME, organism-based; conditions: in vivo
Cytochrome P450 2D6 = Cytochrome P450 2D6 (Homo sapiens, UniProt P10635); assay: Inhibition of CYP2D6 (unknown origin); format: ADME
[2] = Fraction unbound in human plasma; format: ADME, cell-free
[3] = molecular target: Voltage-gated inwardly rectifying potassium channel KCNH2 (Homo sapiens, UniProt Q12809); assay: Displacement of MK-0499 from human ERG
Chain of Voltage-gated inwardly rectifying potassium channel KCNH2 (Q12809 whole entry): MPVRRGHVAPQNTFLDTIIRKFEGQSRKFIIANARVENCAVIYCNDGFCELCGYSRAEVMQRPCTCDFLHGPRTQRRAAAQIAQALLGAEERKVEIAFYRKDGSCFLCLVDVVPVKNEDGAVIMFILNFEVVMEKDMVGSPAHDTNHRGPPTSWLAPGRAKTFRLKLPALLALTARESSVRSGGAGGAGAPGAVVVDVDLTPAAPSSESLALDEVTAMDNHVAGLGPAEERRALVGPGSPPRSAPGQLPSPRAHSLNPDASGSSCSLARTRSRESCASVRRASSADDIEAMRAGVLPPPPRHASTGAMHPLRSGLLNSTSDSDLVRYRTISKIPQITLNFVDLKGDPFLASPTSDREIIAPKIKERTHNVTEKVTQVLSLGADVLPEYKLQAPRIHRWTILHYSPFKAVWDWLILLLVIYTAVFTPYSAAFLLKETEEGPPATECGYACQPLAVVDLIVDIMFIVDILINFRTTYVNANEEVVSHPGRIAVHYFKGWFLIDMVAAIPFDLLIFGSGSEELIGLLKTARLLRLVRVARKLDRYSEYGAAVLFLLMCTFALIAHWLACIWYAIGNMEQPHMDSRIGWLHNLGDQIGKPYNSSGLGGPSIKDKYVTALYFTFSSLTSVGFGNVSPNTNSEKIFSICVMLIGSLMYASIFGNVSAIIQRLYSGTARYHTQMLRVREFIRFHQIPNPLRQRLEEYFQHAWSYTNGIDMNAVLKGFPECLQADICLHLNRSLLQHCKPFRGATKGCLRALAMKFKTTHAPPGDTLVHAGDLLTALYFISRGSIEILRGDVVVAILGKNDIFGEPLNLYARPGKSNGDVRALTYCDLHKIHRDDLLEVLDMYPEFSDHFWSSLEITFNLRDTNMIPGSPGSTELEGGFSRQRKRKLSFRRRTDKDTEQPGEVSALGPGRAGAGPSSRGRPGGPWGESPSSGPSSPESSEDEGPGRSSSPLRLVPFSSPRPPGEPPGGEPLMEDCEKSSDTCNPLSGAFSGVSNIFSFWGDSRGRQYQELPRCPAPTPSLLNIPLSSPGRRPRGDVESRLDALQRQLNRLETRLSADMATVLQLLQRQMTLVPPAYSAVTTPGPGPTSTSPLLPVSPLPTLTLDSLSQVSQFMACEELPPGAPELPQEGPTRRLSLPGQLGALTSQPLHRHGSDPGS

Cytochrome P450 3A4 = Cytochrome P450 3A4 (Homo sapiens, UniProt P08684); assay: Inhibition of CYP3A4 (unknown origin); format: ADME
Chain of Cytochrome P450 3A4 (P08684 whole entry): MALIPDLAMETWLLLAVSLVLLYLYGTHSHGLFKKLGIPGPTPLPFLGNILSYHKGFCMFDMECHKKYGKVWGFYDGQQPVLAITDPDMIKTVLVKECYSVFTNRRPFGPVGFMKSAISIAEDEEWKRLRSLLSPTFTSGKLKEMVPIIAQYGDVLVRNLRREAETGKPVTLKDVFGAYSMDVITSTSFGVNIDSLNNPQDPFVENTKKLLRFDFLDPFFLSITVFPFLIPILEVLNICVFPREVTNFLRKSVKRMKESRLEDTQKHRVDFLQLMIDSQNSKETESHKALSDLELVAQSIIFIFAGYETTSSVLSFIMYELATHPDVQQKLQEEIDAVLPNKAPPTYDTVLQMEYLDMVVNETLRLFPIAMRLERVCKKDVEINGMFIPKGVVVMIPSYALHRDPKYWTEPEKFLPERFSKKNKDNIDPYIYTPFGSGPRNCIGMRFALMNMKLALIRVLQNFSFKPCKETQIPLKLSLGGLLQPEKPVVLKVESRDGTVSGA

[4] = Fraction unbound in human plasma at 2.5 uM by equilibrium dialysis; format: ADME, cell-free
[5] = Drug uptake in rat brain at 3 mg/kg, po measured after 8 hrs; format: ADME, organism-based; conditions: in vivo
[6] = Drug uptake in rat brain at 3 mg/kg, po measured after 24 hrs; format: ADME, organism-based; conditions: in vivo
[7] = Ratio of drug uptake in rat brain to plasma at 3 mg/kg, po measured after 8 hrs; format: ADME, organism-based; conditions: read-out: BPR
MDR1 = assay: Apparent permeability in pig LLC-PK1 cells transfected with MDR1; format: ADME, cell-based, Sus scrofa
[8] = Clearance in Wistar Han rat at 2 mg/kg, iv; format: ADME, organism-based; conditions: in vivo
[9] = molecular target: Voltage-dependent L-type calcium channel subunit alpha-1C (Homo sapiens, UniProt Q13936); assay: Inhibition of Cav1.2 (unknown origin)
[10] = Fraction unbound in Wistar Han rat plasma at 2.5 uM by equilibrium dialysis; format: ADME, cell-free
[11] = Oral bioavailability in Wistar Han rat at 10 mg/kg; format: ADME, organism-based; conditions: in vivo
[12] = molecular target: Sodium channel protein type 5 subunit alpha (Homo sapiens, UniProt Q14524); assay: Inhibition of Nav1.5 (unknown origin)
Chain of Sodium channel protein type 5 subunit alpha (Q14524 whole entry): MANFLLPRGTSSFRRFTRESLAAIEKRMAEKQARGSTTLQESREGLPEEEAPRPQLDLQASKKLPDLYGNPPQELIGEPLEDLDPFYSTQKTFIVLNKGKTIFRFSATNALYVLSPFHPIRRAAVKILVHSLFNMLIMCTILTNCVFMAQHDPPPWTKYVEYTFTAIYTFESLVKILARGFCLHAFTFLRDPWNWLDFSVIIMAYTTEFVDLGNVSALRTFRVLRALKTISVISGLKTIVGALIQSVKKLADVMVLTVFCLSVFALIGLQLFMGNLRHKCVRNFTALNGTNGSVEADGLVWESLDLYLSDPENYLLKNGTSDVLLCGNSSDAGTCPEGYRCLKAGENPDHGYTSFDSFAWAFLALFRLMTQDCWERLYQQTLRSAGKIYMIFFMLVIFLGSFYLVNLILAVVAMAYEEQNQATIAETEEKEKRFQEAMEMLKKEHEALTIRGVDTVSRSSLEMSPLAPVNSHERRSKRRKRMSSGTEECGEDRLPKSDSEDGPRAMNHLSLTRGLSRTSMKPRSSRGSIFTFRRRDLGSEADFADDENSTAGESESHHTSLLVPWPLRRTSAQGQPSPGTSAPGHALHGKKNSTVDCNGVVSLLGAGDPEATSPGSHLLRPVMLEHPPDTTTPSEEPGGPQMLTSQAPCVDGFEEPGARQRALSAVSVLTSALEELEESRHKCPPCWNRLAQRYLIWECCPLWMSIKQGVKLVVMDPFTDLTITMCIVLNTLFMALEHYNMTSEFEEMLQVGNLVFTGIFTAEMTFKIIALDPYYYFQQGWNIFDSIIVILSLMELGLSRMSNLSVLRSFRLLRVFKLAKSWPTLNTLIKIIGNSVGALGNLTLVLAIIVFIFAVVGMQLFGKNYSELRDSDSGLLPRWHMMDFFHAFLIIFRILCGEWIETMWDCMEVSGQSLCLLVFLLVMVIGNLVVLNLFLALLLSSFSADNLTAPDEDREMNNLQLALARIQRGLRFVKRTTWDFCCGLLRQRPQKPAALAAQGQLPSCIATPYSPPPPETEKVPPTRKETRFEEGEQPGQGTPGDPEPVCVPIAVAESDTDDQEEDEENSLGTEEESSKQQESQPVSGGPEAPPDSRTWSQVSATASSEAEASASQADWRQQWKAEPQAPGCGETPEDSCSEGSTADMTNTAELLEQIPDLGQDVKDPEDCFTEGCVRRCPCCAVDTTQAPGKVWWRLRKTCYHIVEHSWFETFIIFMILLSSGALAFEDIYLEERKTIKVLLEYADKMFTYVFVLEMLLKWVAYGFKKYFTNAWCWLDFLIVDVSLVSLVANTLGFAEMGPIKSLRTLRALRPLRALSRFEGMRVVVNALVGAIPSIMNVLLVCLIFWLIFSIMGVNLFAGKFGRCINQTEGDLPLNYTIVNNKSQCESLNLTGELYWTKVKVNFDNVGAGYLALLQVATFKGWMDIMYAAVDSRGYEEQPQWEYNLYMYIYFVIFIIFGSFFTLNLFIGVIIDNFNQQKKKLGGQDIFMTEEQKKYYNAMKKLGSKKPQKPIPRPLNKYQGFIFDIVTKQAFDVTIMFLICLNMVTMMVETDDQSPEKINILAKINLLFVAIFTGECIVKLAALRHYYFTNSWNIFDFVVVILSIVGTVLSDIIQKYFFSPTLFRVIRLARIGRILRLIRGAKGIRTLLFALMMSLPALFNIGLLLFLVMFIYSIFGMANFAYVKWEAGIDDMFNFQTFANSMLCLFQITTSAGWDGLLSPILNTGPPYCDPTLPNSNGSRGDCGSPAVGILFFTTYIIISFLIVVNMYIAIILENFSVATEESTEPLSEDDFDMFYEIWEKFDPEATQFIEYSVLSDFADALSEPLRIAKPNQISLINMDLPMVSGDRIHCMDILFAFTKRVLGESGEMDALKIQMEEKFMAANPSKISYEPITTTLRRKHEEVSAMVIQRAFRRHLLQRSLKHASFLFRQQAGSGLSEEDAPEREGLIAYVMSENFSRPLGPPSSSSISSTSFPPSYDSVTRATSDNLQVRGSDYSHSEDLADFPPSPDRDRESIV

[13] = Volume of distribution at steady state in Wistar Han rat at 2 mg/kg, iv or 10 mg/kg, po; format: ADME, organism-based; conditions: in vivo, read-out: Vdss
[14] = Ratio of Cmax in brain to plasma in rat at 10 mg/kg, po; format: ADME, organism-based
[15] = molecular target: T1, Beta-hexosaminidase subunit beta (Homo sapiens, UniProt P07686); assay: Inhibition of human beta hexosaminidase assessed as inhibitory constant using 4-methylumbelliferyl N-acetyl-beta-D-glucosaminide dihydrate as substrate measured every 60 sec for 45 mins by fluorescence spectrophotometry
T1 sequence (P07686 whole entry): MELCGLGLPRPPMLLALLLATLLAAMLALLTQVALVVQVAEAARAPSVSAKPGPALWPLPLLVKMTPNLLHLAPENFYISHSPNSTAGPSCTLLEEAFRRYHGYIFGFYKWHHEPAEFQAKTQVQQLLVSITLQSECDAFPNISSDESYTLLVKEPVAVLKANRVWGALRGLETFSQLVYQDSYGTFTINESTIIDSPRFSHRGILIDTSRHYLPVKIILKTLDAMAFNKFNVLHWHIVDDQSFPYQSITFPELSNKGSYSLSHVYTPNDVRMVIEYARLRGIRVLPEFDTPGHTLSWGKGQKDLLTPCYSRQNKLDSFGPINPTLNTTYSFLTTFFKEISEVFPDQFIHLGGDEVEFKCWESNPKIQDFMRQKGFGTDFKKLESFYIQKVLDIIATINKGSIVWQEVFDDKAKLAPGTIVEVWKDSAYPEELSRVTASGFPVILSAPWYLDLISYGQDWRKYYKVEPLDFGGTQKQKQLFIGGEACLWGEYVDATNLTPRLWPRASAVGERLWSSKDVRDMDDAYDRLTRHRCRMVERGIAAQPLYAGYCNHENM

[16] = AUC (0 to 24 hrs) in rat brain at 10 mg/kg, po measured upto 24 hrs; format: ADME, organism-based; parameters: dose 10 mg/kg, time < 24 hr, route oral; conditions: in vivo
Cytochrome P450 2C9 = Cytochrome P450 2C9 (Homo sapiens, UniProt P11712); assay: Inhibition of CYP2C9 (unknown origin); format: ADME
Chain of Cytochrome P450 2C9 (P11712 whole entry): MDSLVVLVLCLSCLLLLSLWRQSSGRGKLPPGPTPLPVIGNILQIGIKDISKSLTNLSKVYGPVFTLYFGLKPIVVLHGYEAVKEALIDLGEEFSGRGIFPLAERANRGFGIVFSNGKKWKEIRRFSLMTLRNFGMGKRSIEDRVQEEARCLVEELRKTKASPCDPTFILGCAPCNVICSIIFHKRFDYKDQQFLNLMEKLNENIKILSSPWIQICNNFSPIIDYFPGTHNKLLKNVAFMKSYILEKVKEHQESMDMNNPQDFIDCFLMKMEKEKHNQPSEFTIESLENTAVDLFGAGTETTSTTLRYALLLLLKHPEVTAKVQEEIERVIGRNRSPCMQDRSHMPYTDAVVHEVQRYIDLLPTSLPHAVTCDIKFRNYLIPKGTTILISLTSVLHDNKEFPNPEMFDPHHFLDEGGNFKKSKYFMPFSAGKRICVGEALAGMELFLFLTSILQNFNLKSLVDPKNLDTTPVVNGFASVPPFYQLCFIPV

[17] = Ratio of drug uptake in rat brain to plasma at 3 mg/kg, po measured after 24 hrs; format: ADME, organism-based; conditions: read-out: BPR
[18] = Tmax in rat brain at 10 mg/kg, po measured upto 24 hrs; format: ADME, organism-based
[19] = molecular target: T2, Nuclear receptor subfamily 1 group I member 2 (Homo sapiens, UniProt O75469); assay: Activation of PXR (unknown origin) assessed as CYP3A4 induction
T2 sequence (O75469 whole entry): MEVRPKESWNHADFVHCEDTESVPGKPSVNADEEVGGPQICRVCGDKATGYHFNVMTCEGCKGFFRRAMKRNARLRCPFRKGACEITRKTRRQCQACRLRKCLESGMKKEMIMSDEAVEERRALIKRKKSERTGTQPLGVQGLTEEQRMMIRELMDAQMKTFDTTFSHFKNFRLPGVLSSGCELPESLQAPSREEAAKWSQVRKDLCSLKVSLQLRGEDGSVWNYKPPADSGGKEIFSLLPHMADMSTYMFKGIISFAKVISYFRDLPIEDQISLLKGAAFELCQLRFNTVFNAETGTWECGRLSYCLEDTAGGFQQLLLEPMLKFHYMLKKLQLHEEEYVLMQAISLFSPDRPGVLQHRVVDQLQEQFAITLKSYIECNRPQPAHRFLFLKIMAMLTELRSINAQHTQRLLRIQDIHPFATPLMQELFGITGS

[20] = AUCN in Wistar Han rat at 10 mg/kg, po; format: ADME, organism-based; conditions: in vivo
[21] = Tmax in rat brain at 3 mg/kg, po measured upto 24 hrs; format: ADME, organism-based
[22] = AUCN in Wistar Han rat at 3 mg/kg, po; format: ADME, organism-based; conditions: in vivo
[23] = Half life in Wistar Han rat at 1 mg/kg, iv; format: ADME, organism-based; conditions: in vivo
Protein O-GlcNAcase [24] = molecular target: T3, Protein O-GlcNAcase (Rattus norvegicus, UniProt Q8VIJ5); assay: Inhibition of OGA in rat PC12 cells assessed as OGlcNAcylated protein level incubated for 24 hrs by ELISA; format: cell-based
T3 sequence (Q8VIJ5 whole entry): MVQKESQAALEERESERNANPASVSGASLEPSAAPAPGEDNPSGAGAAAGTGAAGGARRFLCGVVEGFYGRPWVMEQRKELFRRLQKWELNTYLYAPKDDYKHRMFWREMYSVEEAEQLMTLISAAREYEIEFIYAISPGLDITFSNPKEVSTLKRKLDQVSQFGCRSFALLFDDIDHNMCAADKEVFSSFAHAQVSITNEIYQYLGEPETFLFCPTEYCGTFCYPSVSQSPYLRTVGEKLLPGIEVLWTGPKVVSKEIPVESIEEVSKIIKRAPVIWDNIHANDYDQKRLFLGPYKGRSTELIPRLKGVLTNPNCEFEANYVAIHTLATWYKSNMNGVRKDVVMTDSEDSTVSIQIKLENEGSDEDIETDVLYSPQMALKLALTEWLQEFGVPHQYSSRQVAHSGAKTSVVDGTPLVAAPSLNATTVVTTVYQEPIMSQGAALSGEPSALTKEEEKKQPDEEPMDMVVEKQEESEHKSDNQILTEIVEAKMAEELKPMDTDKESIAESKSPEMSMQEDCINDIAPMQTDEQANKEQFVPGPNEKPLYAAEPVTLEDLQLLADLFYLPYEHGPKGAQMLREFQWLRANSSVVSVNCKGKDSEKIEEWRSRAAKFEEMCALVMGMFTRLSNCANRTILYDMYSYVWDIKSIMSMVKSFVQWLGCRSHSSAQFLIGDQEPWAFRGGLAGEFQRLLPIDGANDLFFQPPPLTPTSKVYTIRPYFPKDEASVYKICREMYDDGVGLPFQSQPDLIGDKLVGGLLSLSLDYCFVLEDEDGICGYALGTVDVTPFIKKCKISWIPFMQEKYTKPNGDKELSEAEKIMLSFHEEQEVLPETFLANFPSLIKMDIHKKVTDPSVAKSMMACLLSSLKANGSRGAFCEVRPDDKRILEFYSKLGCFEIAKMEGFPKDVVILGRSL

[25] = AUC (0 to 24 hrs) in rat brain at 3 mg/kg, po measured upto 24 hrs; format: ADME, organism-based; parameters: dose 3 mg/kg, time < 24 hr, route oral; conditions: in vivo
Rattus norvegicus [26] = assay: Elevation of O-protein in rat brain at 3 mg/kg, po measured after 8 hrs relative to control; format: functional
[27] = Oral bioavailability in Wistar Han rat at 3 mg/kg; format: ADME, organism-based; conditions: in vivo
[28] = Clearance in Wistar Han rat at 1 mg/kg, iv; format: ADME, organism-based; conditions: in vivo
Rattus norvegicus [29] = assay: Elevation of O-protein in rat brain at 3 mg/kg, po measured after 24 hrs relative to control; format: functional
Protein O-GlcNAcase [30] = molecular target: T4, Protein O-GlcNAcase (Homo sapiens, UniProt O60502); assay: Inhibition of recombinant human OGA
T4 sequence (O60502 whole entry): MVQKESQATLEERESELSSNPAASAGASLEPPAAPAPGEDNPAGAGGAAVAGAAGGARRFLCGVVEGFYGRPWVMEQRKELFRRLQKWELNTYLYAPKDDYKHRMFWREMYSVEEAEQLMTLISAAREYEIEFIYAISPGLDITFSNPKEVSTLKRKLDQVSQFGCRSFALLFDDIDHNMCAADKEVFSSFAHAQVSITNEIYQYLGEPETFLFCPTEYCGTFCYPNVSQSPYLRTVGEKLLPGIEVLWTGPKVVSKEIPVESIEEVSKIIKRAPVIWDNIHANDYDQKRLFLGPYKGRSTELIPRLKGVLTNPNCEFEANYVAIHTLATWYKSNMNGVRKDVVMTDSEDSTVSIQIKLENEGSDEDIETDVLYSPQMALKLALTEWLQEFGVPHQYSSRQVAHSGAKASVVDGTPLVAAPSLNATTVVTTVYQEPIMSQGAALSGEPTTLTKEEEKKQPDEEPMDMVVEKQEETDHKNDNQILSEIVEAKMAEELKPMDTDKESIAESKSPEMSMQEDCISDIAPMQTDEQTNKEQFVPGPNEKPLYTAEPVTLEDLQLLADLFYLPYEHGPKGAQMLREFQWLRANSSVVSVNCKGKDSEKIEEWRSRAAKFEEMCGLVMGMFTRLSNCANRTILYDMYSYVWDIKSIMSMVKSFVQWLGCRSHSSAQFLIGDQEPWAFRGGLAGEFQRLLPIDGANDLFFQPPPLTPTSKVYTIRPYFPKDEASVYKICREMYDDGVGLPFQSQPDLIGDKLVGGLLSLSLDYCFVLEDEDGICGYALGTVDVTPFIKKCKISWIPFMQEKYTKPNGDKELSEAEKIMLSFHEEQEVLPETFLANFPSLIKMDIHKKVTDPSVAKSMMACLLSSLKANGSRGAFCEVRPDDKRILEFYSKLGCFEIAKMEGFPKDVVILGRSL

[31] = Volume of distribution at steady state in Wistar Han rat at 1 mg/kg, iv or 3 mg/kg, po; format: ADME, organism-based; conditions: in vivo, read-out: Vdss
Rattus norvegicus [32] = assay: Increase in O-protein AUC in rat brain at 3 mg/kg, po measured upto 24 hrs; format: ADME, organism-based; conditions: in vivo

Chain of Cytochrome P450 2D6 (P10635 whole entry): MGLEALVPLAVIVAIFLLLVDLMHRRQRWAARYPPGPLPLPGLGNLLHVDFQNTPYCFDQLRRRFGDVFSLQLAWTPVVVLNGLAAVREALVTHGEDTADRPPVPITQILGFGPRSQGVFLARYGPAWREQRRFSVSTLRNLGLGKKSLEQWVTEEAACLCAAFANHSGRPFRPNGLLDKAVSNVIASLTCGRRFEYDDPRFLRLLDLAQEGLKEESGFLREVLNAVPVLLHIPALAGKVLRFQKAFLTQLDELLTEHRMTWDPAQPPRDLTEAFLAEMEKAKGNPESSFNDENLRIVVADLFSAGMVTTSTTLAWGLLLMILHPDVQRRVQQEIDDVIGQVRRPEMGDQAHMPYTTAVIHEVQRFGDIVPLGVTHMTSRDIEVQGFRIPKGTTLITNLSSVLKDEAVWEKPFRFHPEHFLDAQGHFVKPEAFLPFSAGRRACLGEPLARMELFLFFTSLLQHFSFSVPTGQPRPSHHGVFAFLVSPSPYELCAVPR

half-life [1]: 1.4 h | IC50 (Cytochrome P450 2D6): > 50 µM | fraction unbound [2]: 0.76 | IC50 (Cytochrome P450 3A4): > 50 µM | fraction unbound at 2.5 µM [4]: 0.76 | Drug uptake [5]: 0.185 nmol/g | Drug uptake [6]: 0.051 nmol/g | Kp at 8 h [7]: 0.94 | Papp (MDR1): ≤ 1 ×10⁻⁶ cm/s | clearance [8]: 25 mL/min/kg | fraction unbound at 2.5 µM [10]: 0.73 | bioavailability [11]: 30% | Vd [13]: 1.5 L/kg | Kp [14]: 0.1 | Ki [15]: > 10 µM | AUC [16]: 1.14 nM·h/g | IC50 (Cytochrome P450 2C9): > 50 µM | Kp at 24 h [17]: > 2.7 | Tmax [18]: 8 h | EC50 [19]: > 30 µM | AUC/dose [20]: 0.8 µM·kg·h/mg
Structure (SMILES): CCNC1=N[C@@H]2[C@@H](O)[C@H](O)[C@@H](CO)O[C@@H]2S1
IC50 [3]: > 30 µM | IC50 [9]: > 30 µM | IC50 [12]: > 30 µM

Tmax [21]: 8 h | AUC/dose [22]: 1.43 µM·kg·h/mg | half-life [23]: 1.27 h | EC50 (Protein O-GlcNAcase [24]): 0.0106 µM | fraction unbound at 2.5 µM [4]: 0.84 | Drug uptake [5]: 0.099 nmol/g | AUC [25]: 1.963 nM·h/g | Drug uptake [6]: 0.074 nmol/g | Kp at 8 h [7]: 1.67 | bioavailability [27]: 70.4% | clearance [28]: 36.8 mL/min/kg | fraction unbound at 2.5 µM [10]: 0.96 | Ki (Protein O-GlcNAcase [30]): 0.00053 µM | Ki [15]: > 10 µM | Kp at 24 h [17]: ≥ 29.5 | Vd [31]: 2 L/kg | fold change (FC) (Rattus norvegicus [32]): 18.44
Structure (SMILES): CNC1=N[C@@H]2[C@H](F)[C@H](O)[C@@H](CO)O[C@@H]2S1
fold change (FC) (Rattus norvegicus [26]): 2.13 | fold change (FC) (Rattus norvegicus [29]): 1.45
